Values joined by “and” are separate entries in the source; they are usually repeats but may differ in a detail not shown here. Identical values can stand only once.
Tests used:
[1] = molecular target: T1, endogeneous human CRBN (U266 extract) (Homo sapiens, UniProt Q96SW2); assay: Thalidomide affinity bead competition assay; format: binding
T1 construct: endogenous in cells; host or cells: U266 human multiple myeloma cells (NP-40 lysate)
Protocol: Affinity beads coupled to a thalidomide acid analog were incubated with the U266 extracts and, after extensive washing of the beads, the bound proteins were eluted. CRBN binding to the thalidomide-coupled affinity beads was determined by quantitative CRBN immunoblot determination.

[2] = tested on: Revlimid-resistant NCI-H929 R3-10; assay: Proliferation and viability by 7-AAD staining; format: cell-based; settings: Homo sapiens, NCI-H929, 120 h; R3-10; 5 days; read-out: IC50, proliferation
WSU-DLCL2 cell line = assay: Cell cycle analysis; format: cell-based
Protocol: (§1) Cell Cycle Analysis: Cells were treated with DMSO or an amount of a compound provided herein for 48 hours. Propidium iodide staining for cell cycle was performed using CycleTEST PLUS (Becton Dickinson) according to manufacturer's protocol. Following staining, cells were analyzed by a FACSCalibur flow cytometer using ModFit LT software (Becton Dickinson).

DoHH2 cell line = assay: Cell cycle analysis; format: cell-based
Protocol: as §1

[3] = Pharmacokinetics in monkey; format: in vivo; settings: >99.5% S-enantiomer, <0.5% R-enantiomer
[4] = tested on: Revlimid-resistant NCI-H929 R1-10; assay: Proliferation and viability by 7-AAD staining; format: cell-based; settings: Homo sapiens, NCI-H929, 120 h; R1-10; 5 days; read-out: IC50, proliferation
[5] = tested on: Revlimid-resistant NCI-H929 R2-10; assay: Proliferation and viability by 7-AAD staining; format: cell-based; settings: Homo sapiens, NCI-H929, 120 h; R2-10; 5 days; read-out: IC50, proliferation
Rec-1 MCL cells = assay: 3 day 3H-thymidine incorporation assay; format: cell-based
OCI-Ly10 = assay: 5 day 3H thymidine incorporation; format: cell-based; settings: Homo sapiens, ABC subtype
Protocol: (§2) Cells were treated with the tested compound for 5 days at 37° C.; proliferation of cells was determined using ^3H-thymidine incorporation method.

U2932 = assay: 5 day 3H thymidine incorporation; format: cell-based; settings: Homo sapiens, ABC subtype
Protocol: as §2

OCI-Ly3 = assay: 5 day 3H thymidine incorporation; format: cell-based; settings: Homo sapiens, ABC subtype
Protocol: as §2

TMD8 = assay: 5 day 3H thymidine incorporation; format: cell-based; settings: Homo sapiens, ABC subtype
Protocol: as §2

Karpas-1106P = assay: 5 day 3H thymidine incorporation; format: cell-based; settings: Homo sapiens, PMBL
Protocol: as §2

OCI-Ly19 = assay: 5 day 3H thymidine incorporation; format: cell-based; settings: Homo sapiens, GCB subtype
Protocol: as §2

WSU-DLCL2 = assay: 5 day 3H thymidine incorporation; format: cell-based; settings: Homo sapiens, WSUDLCL2; GCB subtype
Protocol: as §2

SUDHL4 = assay: 5 day 3H thymidine incorporation; format: cell-based; settings: Homo sapiens, SU-DHL-4; GCB subtype
Protocol: as §2

RIVA = assay: 5 day 3H thymidine incorporation; format: cell-based; settings: ABC subtype
Protocol: as §2

human umbilical artery = assay: Human umbilical artery assay; format: cell-based
Protocol: Compounds I, I-R, and I-S were tested in various angiogenesis inhibition assays.

[6] = tested on: lenalidomide resistant H929 subclones; assay: Proliferation and viability by 7-AAD staining; format: cell-based
Protocol: The Revlimid-resistant or -sensitive cell lines were treated with test compounds for 5 days, and then cell proliferation and viability were assessed by 7-aminoactinomycin D (7-AAD) staining.
(§3) CRBN ubiquitination was measured in HEK293T cells, which were transfected with an amino-terminal His-biotin-tagged CRBN construct, then preincubated with compounds for one hour followed by treatment with the MG132 proteasome inhibitor (to arrest degradation of ubiquitinated proteins). Cells were lysed and processed to measure CRBN ubiquitination by SDS-PAGE and immunoblot analysis using an anti-ubiquitin antibody. Cell proliferation studies were conducted in lenalidomide-sensitive and refractory multiple myeloma cells. […] T-cell costimulation was measured in purified primary human T cells stimulated using immobilized anti-CD3 antibody in cell culture for 2 days, and cytokine secretion was measured by ELISA.

[7] = tested on: DoHH2 Follicular Lymphoma xenograft; assay: DoHH2 Follicular Lymphoma xenograft model; format: in vivo, mouse
Farage DLBCL cells = assay: 3 day 3H-thymidine incorporation assay; format: cell-based
[8] = tested on: purified primary human T cells stimulated using immobilized anti-CD3 antibody; assay: T-cell costimulation, IL-2 production; format: cell-based
Protocol: as §3

[9] = 2 mg/kg monotherapy, 91% S-enantiomer, 9% R-enantiomer
[10] = 3 mg/kg monotherapy, 84% S-enantiomer, 16% R-enantiomer
[11] = 3 mg/kg with Rituxan 1 mg/kg, 84% S-enantiomer, 16% R-enantiomer
[12] = 30 mg/kg monotherapy, Compound I-S: 84% S-enantiomer, 16% R-enantiomer
[13] = 30 mg/kg with Rituxan 1 mg/kg, Compound I-S: 84% S-enantiomer, 16% R-enantiomer
[14] = 40 mg/kg monotherapy, Compound I-S: 91% S-enantiomer, 9% R-enantiomer

O=C1CC[C@H](N2Cc3c(OCc4ccc(CN5CCOCC5)cc4)cccc3C2=O)C(=O)N1 [Compound I-S, (S)-3-(4-((4-(morpholinomethyl)benzyl)oxy)-1-oxoisoindolin-2-yl)piperidine-2,6-dione]
binding to CRBN [1]: binds to endogeneous human CRBN | IC50 [2]: 510 nM | cell cycle effect (WSU-DLCL2 cell line): induced G1 arrest | cell cycle effect (DoHH2 cell line): induced G1 arrest | F ([3]; 1 mpk po): 20% | AUC ([3]; plasma, 0.5 mg/kg, 0.5 mpk iv): 490 ng·h/mL and 1.1 µM·h | clearance ([3]; plasma, 0.5 mg/kg, 0.5 mpk iv, read-out: CLp): 8.4 mL/min/kg | Vd ([3]; plasma, 0.5 mg/kg, 0.5 mpk iv, read-out: Vss): 1.2 L/kg | AUC ([3]; plasma, 1 mg/kg, 1 mpk po): 390 ng·h/mL and 0.87 µM·h | Cmax ([3]; plasma, 1 mg/kg, 1 mpk po): 140 ng/mL and 310 nM | IC50 [4]: 1320 nM | IC50 [5]: 1200 nM | IC50 (Rec-1 MCL cells; Homo sapiens, Rec1, 72 h, 3 day, read-out: anti-proliferative IC50): 27 nM | combination effect, fractional product method (Rec-1 MCL cells; combined with Rituxan): additive manner | IC50 (OCI-Ly10): 0.9 nM | IC50 (U2932): 5 nM | IC50 (OCI-Ly3): > 10000 nM | IC50 (TMD8): 59 nM | IC50 (Karpas-1106P): 280 nM | IC50 (OCI-Ly19): > 10000 nM | IC50 (WSU-DLCL2): 240 nM | IC50 (SUDHL4): 1600 nM | IC50 (RIVA): 2300 nM | IC50 (human umbilical artery): 52 nM | activity against Revlimid-resistant cell lines [6]: active | IC50 ([6]; Homo sapiens, NCI-H929, 120 h, read-out: IC50 for inhibition of proliferation): 510 to 1580 nM | % TGD ((T − C)/C) [7, 9]: 33% | % TGI at D12 (T/C) [7, 9]: 49% | tumor growth, combination study ([7]; 3 mg/kg in combination with Rituxan): more efficacious than Revlimid at 30 mg/kg in combination with Rituxan | % TGD ((T − C)/C) [7, 10]: 13% | % TGI at D12 (T/C) [7, 10]: 27% | % TGD ((T − C)/C) [7, 11]: 57% | % TGI at D12 (T/C) [7, 11]: 71% | % TGD ((T − C)/C) [7, 12]: 21% | % TGI at D12 (T/C) [7, 12]: 35% | % TGD ((T − C)/C) [7, 13]: 56% | % TGI at D12 (T/C) [7, 13]: 50% | % TGD ((T − C)/C) [7, 14]: 52% | % TGI at D12 (T/C) [7, 14]: 67% | tumor growth, monotherapy study ([7]; 2 and 40 mg/kg): significantly inhibits tumor growth | IC50 (Farage DLBCL cells; Farage, 72 h, 3 day, read-out: anti-proliferative IC50): 280 nM | combination effect, fractional product method (Farage DLBCL cells; combined with Rituxan): additive to synergistic manner | EC50 [8]: ~0.29 nM

From patent US20260007679A1, “METHODS OF TREATING CANCER USING 3-(4-((4-(MORPHOLINOMETHYL)BENZYL)OXY)-1-OXOISOINDOLIN-2-YL)PIPERIDINE-2,6-DIONE” (Celgene Corporation, priority 2012, published 2026)
